Results on two compounds are retold here after article PMC3559828 (PLoS ONE, 2013).

Bridge positions count the residues as written; N and C are the ends. Peptide text beside a SMILES is read from it.

Assay [1] concerns the target T1, Mouse α1β1γδ nAChR (Mus musculus, UniProt P02716+P04756+P09690+P20782).
T1 construct: expressed in transfected cells; host or cells: Xenopus oocytes injected with cRNA
As to the kind of experiment: cell-based.

The subject of assay [2] is α9α10 nAChR. Conditions: cited from earlier work.
Assay [3] deals with GABAB receptors. Conditions: cited from earlier work.

T1 sequence (P04756 21-457 limits assumed): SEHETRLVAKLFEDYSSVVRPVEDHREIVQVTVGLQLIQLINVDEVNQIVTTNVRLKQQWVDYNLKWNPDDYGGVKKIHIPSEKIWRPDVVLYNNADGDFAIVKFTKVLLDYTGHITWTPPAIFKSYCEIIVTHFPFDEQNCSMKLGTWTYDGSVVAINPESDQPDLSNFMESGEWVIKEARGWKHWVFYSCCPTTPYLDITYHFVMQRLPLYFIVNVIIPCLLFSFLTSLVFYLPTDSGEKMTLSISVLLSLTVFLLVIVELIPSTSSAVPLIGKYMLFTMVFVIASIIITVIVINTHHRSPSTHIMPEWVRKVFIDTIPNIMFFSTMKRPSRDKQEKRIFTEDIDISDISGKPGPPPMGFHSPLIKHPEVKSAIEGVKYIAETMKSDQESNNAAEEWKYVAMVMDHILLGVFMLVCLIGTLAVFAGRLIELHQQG
T1 sequence (P09690 24-501 partner limits assumed): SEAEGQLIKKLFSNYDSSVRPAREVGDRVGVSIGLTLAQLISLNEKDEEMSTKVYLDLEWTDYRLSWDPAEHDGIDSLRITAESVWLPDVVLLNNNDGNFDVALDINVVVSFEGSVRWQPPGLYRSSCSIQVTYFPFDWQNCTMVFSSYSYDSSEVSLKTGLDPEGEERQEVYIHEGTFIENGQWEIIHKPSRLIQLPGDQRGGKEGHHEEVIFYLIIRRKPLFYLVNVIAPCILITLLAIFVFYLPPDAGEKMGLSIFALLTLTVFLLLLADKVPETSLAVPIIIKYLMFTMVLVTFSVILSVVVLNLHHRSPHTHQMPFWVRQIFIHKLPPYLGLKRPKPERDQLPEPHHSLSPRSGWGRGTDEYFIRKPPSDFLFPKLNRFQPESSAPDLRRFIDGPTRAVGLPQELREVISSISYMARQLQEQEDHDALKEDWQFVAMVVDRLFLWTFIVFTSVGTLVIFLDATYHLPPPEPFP
T1 sequence (P02716 25-520 limits assumed): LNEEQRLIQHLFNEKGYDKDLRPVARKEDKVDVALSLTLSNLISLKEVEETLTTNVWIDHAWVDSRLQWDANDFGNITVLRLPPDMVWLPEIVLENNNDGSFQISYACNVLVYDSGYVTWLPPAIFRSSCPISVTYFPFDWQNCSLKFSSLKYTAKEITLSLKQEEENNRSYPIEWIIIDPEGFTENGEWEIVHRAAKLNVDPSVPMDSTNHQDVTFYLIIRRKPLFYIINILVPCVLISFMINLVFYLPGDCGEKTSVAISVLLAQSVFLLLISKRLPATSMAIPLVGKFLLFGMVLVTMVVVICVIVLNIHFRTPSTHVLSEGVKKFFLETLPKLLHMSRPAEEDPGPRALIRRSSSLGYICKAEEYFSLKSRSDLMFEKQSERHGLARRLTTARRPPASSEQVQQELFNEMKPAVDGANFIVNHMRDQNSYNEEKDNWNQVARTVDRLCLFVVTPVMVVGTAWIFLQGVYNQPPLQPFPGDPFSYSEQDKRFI
T1 sequence (P20782 21-493 limits assumed): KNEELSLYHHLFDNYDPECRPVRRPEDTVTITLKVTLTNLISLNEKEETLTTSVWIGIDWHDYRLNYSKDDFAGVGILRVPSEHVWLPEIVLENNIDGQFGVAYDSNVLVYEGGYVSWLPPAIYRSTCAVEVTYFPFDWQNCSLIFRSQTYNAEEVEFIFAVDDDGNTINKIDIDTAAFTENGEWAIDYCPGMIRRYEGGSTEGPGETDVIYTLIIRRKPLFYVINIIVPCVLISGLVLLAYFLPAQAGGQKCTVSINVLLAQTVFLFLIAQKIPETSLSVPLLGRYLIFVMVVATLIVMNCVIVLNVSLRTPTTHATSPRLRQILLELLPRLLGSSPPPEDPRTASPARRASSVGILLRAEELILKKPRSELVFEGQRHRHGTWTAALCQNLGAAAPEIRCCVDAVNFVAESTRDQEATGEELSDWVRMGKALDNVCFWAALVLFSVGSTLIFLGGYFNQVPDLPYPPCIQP

`CC(C)C[C@@H]1NC(=O)[C@@H](NC(=O)[C@H](CCCNC(=N)N)NC(=O)[C@@H](N)C(C)C)CSSC[C@@H](C(=O)N[C@H]2CSSC[C@@H](C(=O)N[C@H](C(=O)N[C@@H](Cc3ccc(O)cc3)C(=O)N[C@@H](Cc3ccc(O)cc3)C(=O)N[C@H](C(=O)N[C@@H](CCC(N)=O)C(=O)N[C@@H](CO)C(=O)N[C@@H](CCCNC(=N)N)C(=O)N[C@@H](CCC(=O)O)C(=O)O)[C@@H](C)O)C(C)C)NC(=O)[C@H](CCCNC(=N)N)NC(=O)[C@H](CO)NC(=O)[C@H](Cc3c[nH]cn3)NC(=O)[C@H](CCCNC(=N)N)NC(=O)[C@H](C)NC(=O)[C@H](Cc3ccccc3)NC(=O)[C@H](CO)NC(=O)[C@@H]3CCCN3C(=O)CNC(=O)[C@H](CCCCN)NC(=O)[C@H](CCC(N)=O)NC2=O)NC(=O)[C@@H]2CCCN2C(=O)[C@@H]2CCCN2C(=O)[C@H](CCCNC(=N)N)NC(=O)[C@H](Cc2ccccc2)NC(=O)[C@H](CC(C)C)NC(=O)[C@H](CCCCN)NC(=O)[C@H](CC(N)=O)NC(=O)[C@@H]2CCCN2C(=O)[C@H](CCC(N)=O)NC(=O)[C@H](C)NC(=O)CNC(=O)[C@H](CO)NC(=O)[C@H](CCCCN)NC(=O)[C@H](CCC(=O)O)NC1=O` [αB-VxXXIVA [1], [2]] (H-VRCLEKSGAQPNKLFRPPCCQKGPSFARHSRCVYYTQSRE-OH; disulfide 3-19, 20-32) displayed a half-maximal inhibitory concentration (IC50) in assay [1] of 6.6 µM.

As for α-conotoxin RgIA, the IC50 in assay [2] was 19 nM. Also, in assay [3], the “activity at GABAB receptors” value is recorded as “activate GABAB receptors”.
